Like-named read-outs stand apart in the source and are kept apart here. Starred links: 1 amine or outer side, 2 acyl side, 3 side chain; linkers in the order of their positions; H or OH if unused. Positions of bridges follow the written chain, without caps; N, C: chain ends. Non-standard residues stand in square brackets, D forms with d. Residues, ends and D or L forms follow the SMILES beside them. *: point of attachment. NMePhe(3-Cl) = CN[C@@H](Cc1cccc(Cl)c1)C(=O)O; hhPhe = N[C@@H](CCCc1ccccc1)C(=O)O; NMeF = CN[C@@H](Cc1ccccc1)C(=O)O; NMeGABA = CN(CCCC(=O)[*:2])[*:1]; NMeI = CC[C@H](C)[C@H](NC)C(=O)O; NMeβAla = CN(CCC(=O)[*:2])[*:1]; NMeL = CN[C@@H](CC(C)C)C(=O)O; NMeV = CN[C@H](C(=O)O)C(C)C; NMeA = CN[C@@H](C)C(=O)O; Piperidide = C1CCN(*)CC1; dNMeA = CN[C@H](C)C(=O)O; β3hA = C[C@H](N)CC(=O)O; Sar = CNCC(=O)O; tBu = CC(C)(C)*
Tests used:
[1] = PAMPA (parallel artificial membrane permeability assay); format: in vitro ADME; conditions: for Papp at 18 hours, 50 µM: PAMPA
In short: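 Artificial membrane was 10% (w/v) egg lecithin plus 0.5% (w/v) cholesterol in dodecane on a PVDF filter. A 10 mM DMSO stock was added at 0.5% (v/v) to donor buffer (50 mM MOPSO, pH 6.5, 5.0% glycocholic acid). After 18 h at 37 °C, LC/MS or LC/UV gave donor and acceptor levels for Pe.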

[2] = Metabolic stability in human hepatic microsome; format: in vitro ADME; conditions: microsomes
[3] = membrane permeation rate (Pe), 50 mM MOPSO buffer pH 6.5 with 5.0% glycocholic acid, 37° C., 18 hours, read-out: iPAMPA Pe
[4] = pH 7.4, human hepatic microsome, NADPH(+), read-out: CL NADPH(+)

SMILES	Papp at 18 hours, 50 µM ([1]; pH 6.5) [×10⁻⁶ cm/s]	microsomal CLint at 1 uM ([2]; human, pH 7.4, CL NADPH(+)) [µL/min/mg]	Papp at 18 hours, 50 µM [1, 3] [×10⁻⁶ cm/s]	microsomal CLint at 1 uM [2, 4] [µL/min/mg]	iPAMPA Pe ([1]; membrane permeation rate (Pe), 50 mM MOPSO buffer pH 6.5 with 5.0% glycocholic acid, 37° C., 18 hours)
CC[C@H](C)[C@@H]1NC(=O)[C@H](Cc2ccccc2)NC(=O)[C@H](C(C)C)N(C)C(=O)CCCN(C)C(=O)C[C@@H](C(=O)N2CCCCC2)NC(=O)[C@H](Cc2ccccc2)NC(=O)[C@H](CC(C)C)N(C)C(=O)CNC(=O)[C@H](CC(C)C)N(C)C(=O)[C@H](C)N(C)C(=O)[C@H]([C@@H](C)O)NC(=O)[C@H](CC(C)C)NC1=O [DP-273] ([NMeGABA][NMeV]FILT[NMeA][NMeL]G[NMeL]FD-Piperidide; lactam N-12)	21	102			
CC(C)C[C@@H]1NC(=O)[C@H](CC(C)C)N(C)C(=O)[C@H](C)NC(=O)[C@H](C(C)C)N(C)C(=O)[C@H](C)N(C)C(=O)CN(C)C(=O)[C@H]([C@@H](C)O)NC(=O)[C@H](Cc2ccccc2)NC(=O)[C@H](CC(C)C)N(C)C(=O)[C@@H](C)N(C)C(=O)C[C@@H](C(=O)N2CCCCC2)NC1=O [DP-243] ([dNMeA][NMeL]FT[Sar][NMeA][NMeV]A[NMeL]LD-Piperidide; lactam N-11)			8.4	32	
CC[C@H](C)[C@H](NC(=O)[C@H](Cc1ccccc1)N(C)C(=O)[C@@H](NC(=O)[C@H](C)NC(=O)[C@H](CC(C)C)N(C)C(=O)[C@@H]1CC(=O)N(C)[C@@H](C)C(=O)N(C)[C@@H](CC(C)C)C(=O)N(C)[C@@H](Cc2ccccc2)C(=O)N[C@@H]([C@@H](C)O)C(=O)N(C)[C@@H](CC(C)C)C(=O)N(C)[C@@H](CC(C)C)C(=O)N[C@@H]([C@@H](C)CC)C(=O)N(C)[C@@H](CC(C)C)C(=O)N1)C(C)C)C(=O)N1CCCCC1 [DP-938] ([NMeA][NMeL][NMeF]T[NMeL][NMeL]I[NMeL]D[NMeL]AV[NMeF]I-Piperidide; lactam N-9)			0.1	8	
CC(C)C[C@H]1C(=O)N(C)[C@@H](C)C(=O)N[C@@H]([C@@H](C)O)C(=O)N(C)[C@@H](C)C(=O)N(C)[C@@H](Cc2ccccc2)C(=O)N(C)CC(=O)N[C@H](C(=O)N(C)[C@@H](Cc2ccccc2)C(=O)N[C@@H](C)C(=O)N2CCCCC2)CC(=O)N(C)[C@@H](C)C(=O)N(C)[C@@H](C)C(=O)N[C@@H](C)C(=O)N[C@@H](Cc2ccccc2)C(=O)N1C [DP-345] ([NMeA][NMeA]AF[NMeL][NMeA]T[NMeA][NMeF][Sar]D[NMeF]A-Piperidide; lactam N-11)			2.8	7	
CC(C)C[C@@H]1NC(=O)[C@H](CC(C)C)N(C)C(=O)CNC(=O)[C@H](C(C)C)N(C)C(=O)[C@H](C)N(C)C(=O)[C@H]([C@@H](C)O)NC(=O)[C@H](C)N(C)C(=O)CCCN(C)C(=O)C[C@@H](C(=O)N(C)[C@@H](Cc2ccccc2)C(=O)N[C@@H](C)C(=O)N2CCCCC2)NC(=O)[C@H](Cc2ccccc2)NC(=O)[C@H](CC(C)C)N(C)C1=O [DP-365] ([NMeGABA][NMeA]T[NMeA][NMeV]G[NMeL]L[NMeL]FD[NMeF]A-Piperidide; lactam N-11)			20	35	
CC[C@H](C)[C@@H]1NC(=O)[C@H](CC(C)C)N(C)C(=O)[C@H](Cc2ccccc2)N(C)C(=O)[C@@H](C(C)C)NC(=O)C[C@H](C)NC(=O)[C@H](CC(C)C)N(C)C(=O)[C@H](C)N(C)C(=O)[C@H]([C@@H](C)O)NC(=O)[C@H](Cc2cccc(Cl)c2)N(C)C(=O)[C@H](CC(C)C)N(C)C1=O [DP-782] (cyclo(I[NMeL][NMePhe(3-Cl)]T[NMeA][NMeL][β3hA][dV][NMeF][NMeL]))	10	127			
CC(C)C[C@@H]1NC(=O)[C@H](CC(C)C)N(C)C(=O)CCN(C)C(=O)C[C@@H](C(=O)N(C)[C@@H](Cc2ccccc2)C(=O)N[C@@H](C)C(=O)N2CCCCC2)NC(=O)[C@H](C)N(C)C(=O)[C@H]([C@@H](C)O)NC(=O)[C@H](Cc2ccccc2)NC(=O)[C@H](CC(C)C)N(C)C(=O)CNC(=O)[C@H](Cc2ccccc2)N(C)C1=O [DP-446] ([NMeβAla][NMeL]L[NMeF]G[NMeL]FT[NMeA]D[NMeF]A-Piperidide; lactam N-10)			40	104	
CC(C)C[C@@H]1NC(=O)[C@@H]2CCCN2C(=O)[C@H](Cc2ccccc2)N(C)C(=O)[C@H](C)N(C)C(=O)[C@H]([C@@H](C)O)NC(=O)[C@@H](C(C)C)NC(=O)C[C@@H](C(=O)N2CCCCC2)NC(=O)[C@H](CC(C)C)N(C)C(=O)[C@H](C)N(C)C(=O)[C@H](Cc2ccccc2)NC(=O)[C@H](C(C)C)N(C)C1=O [DP-146] ([dV]T[NMeA][NMeF]PL[NMeV]F[NMeA][NMeL]D-Piperidide; lactam N-11)	26	52			
CC[C@H](C)[C@H]1C(=O)NCC(=O)N(C)[C@@H](Cc2ccccc2)C(=O)N[C@@H]([C@@H](C)O)C(=O)N(C)[C@@H](CC(C)C)C(=O)N[C@@H](CC(C)C)C(=O)N[C@@H](C)CC(=O)N(C)[C@H](C)C(=O)N(C)[C@@H](CC(C)C)C(=O)N[C@@H](Cc2ccccc2)C(=O)N(C)[C@@H](CC(C)C)C(=O)N[C@@H](C(C)C)C(=O)N1C [DP-757] (cyclo(F[NMeL]V[NMeI]G[NMeF]T[NMeL]L[β3hA][dNMeA][NMeL]))	33	124			
CC[C@H](C)[C@@H]1NC(=O)[C@H](CC(C)C)N(C)C(=O)[C@H](C)NC(=O)CCCN(C)C(=O)C[C@@H](C(=O)N2CCCCC2)NC(=O)[C@H]([C@@H](C)O)NC(=O)[C@H](Cc2ccccc2)NC(=O)[C@H](C(C)C)N(C)C(=O)[C@H](CC(C)C)N(C)C(=O)[C@H](Cc2ccccc2)N(C)C1=O [DP-121] ([NMeGABA]A[NMeL]I[NMeF][NMeL][NMeV]FTD-Piperidide; lactam N-10)	41	46			
CC(C)C[C@H]1C(=O)N[C@@H](C(C)C)C(=O)N(C)[C@@H](Cc2ccccc2)C(=O)NCC(=O)N[C@H](C(=O)N(C)[C@@H](Cc2ccccc2)C(=O)N(C)[C@@H](Cc2ccccc2)C(=O)N[C@@H](C)C(=O)N2CCCCC2)CC(=O)N[C@H](C)C(=O)N[C@@H]([C@@H](C)O)C(=O)N(C)[C@@H](C)C(=O)N(C)[C@@H](Cc2ccccc2)C(=O)N1C [DP-209] ([dA]T[NMeA][NMeF][NMeL]V[NMeF]GD[NMeF][NMeF]A-Piperidide; lactam N-9)			42	98	
CC(C)C[C@@H]1NC(=O)[C@H](Cc2ccccc2)N(C)C(=O)[C@H](C)N(C)C(=O)C[C@H](C)NC(=O)[C@H]([C@@H](C)O)NC(=O)[C@H](CC(C)C)N(C)C(=O)[C@H](Cc2ccccc2)NC(=O)[C@H](CC(C)C)N(C)C(=O)[C@H](CC(C)C)N(C)C1=O [DP-791] (cyclo(F[NMeL]T[β3hA][NMeA][NMeF]L[NMeL][NMeL]))			41	794	
CC(C)C[C@H]1C(=O)N[C@@H]([C@@H](C)O)C(=O)N(C)[C@@H](C)C(=O)N[C@H](C(=O)N2CCCCC2)CC(=O)N(C)[C@@H](C)C(=O)N[C@@H](C)C(=O)N(C)[C@@H](Cc2ccccc2)C(=O)N(C)[C@@H](CC(C)C)C(=O)N[C@@H](Cc2ccccc2)C(=O)N1C [DP-150] ([NMeA]A[NMeF][NMeL]F[NMeL]T[NMeA]D-Piperidide; lactam N-9)			33	701	
CC[C@H](C)[C@@H]1NC(=O)[C@H](CC(C)C)NC(=O)[C@H](C(C)C)NC(=O)[C@H](CC(C)C)N(C)C(=O)[C@H](CC(C)C)NC(=O)[C@H](CCCc2ccccc2)NC(=O)[C@H]([C@@H](C)O)NC(=O)[C@H](C)N(C)C(=O)[C@H](CC(C)C)NC(=O)[C@H](C)N(C)C(=O)C[C@@H](C(=O)N2CCCCC2)NC1=O [DP-729] ([NMeA]L[NMeA]T[hhPhe]L[NMeL]VLID-Piperidide; lactam N-11)			4.7	54	
CC[C@H](C)[C@H](NC(=O)[C@H](Cc1ccccc1)N(C)C(=O)[C@H](Cc1cccc(Cl)c1)N(C)C(=O)[C@H](C)N(C)C(=O)[C@@H]1CCCN1C(=O)[C@@H]1CC(=O)N[C@@H](C)C(=O)N(C)[C@@H](CC(C)C)C(=O)N(C)[C@@H](Cc2ccccc2)C(=O)N[C@@H]([C@@H](C)O)C(=O)N(C)[C@@H](Cc2ccccc2)C(=O)N[C@@H](CC(C)C)C(=O)N1)C(=O)N1CCCCC1 [DP-915] (A[NMeL][NMeF]T[NMeF]LDP[NMeA][NMePhe(3-Cl)][NMeF]I-Piperidide; lactam N-7)				89	1.0E−07
CC(C)C[C@@H]1NC(=O)[C@H](C)N(C)C(=O)[C@H](C(C)C)N(C)C(=O)CN(C)C(=O)[C@H](Cc2ccccc2)NC(=O)[C@H](C(C)C)N(C)C(=O)[C@H](C)N(C)C(=O)[C@H]([C@@H](C)O)NC(=O)[C@H](Cc2ccccc2)N(C)C(=O)[C@H](C)NC(=O)CCN(C)C(=O)C[C@@H](C(=O)N2CCCCC2)NC1=O [DP-408] ([NMeβAla]A[NMeF]T[NMeA][NMeV]F[Sar][NMeV][NMeA]LD-Piperidide; lactam N-12)	1.9	14			
CC[C@H](C)[C@@H]1NC(=O)[C@H](CC(C)C)N(C)C(=O)[C@H](CC(C)C)N(C)C(=O)[C@@H](C(C)C)NC(=O)C[C@H](C)NC(=O)[C@H](CC(C)C)N(C)C(=O)[C@H](C)N(C)C(=O)[C@H]([C@@H](C)O)NC(=O)[C@H](CC(C)C)N(C)C(=O)[C@H](C)N(C)C1=O [DP-813] (cyclo(I[NMeA][NMeL]T[NMeA][NMeL][β3hA][dV][NMeL][NMeL]))			30	195	
CC(C)C[C@H]1C(=O)N[C@@H]([C@@H](C)O)C(=O)N(C)[C@@H](CC(C)C)C(=O)N(C)CC(=O)N(C)[C@@H](Cc2ccccc2)C(=O)N[C@@H](COC(C)(C)C)C(=O)N[C@H](C(=O)N2CCCCC2)CC(=O)N1C [DP-717] ([NMeL]T[NMeL][Sar][NMeF]S(tBu)D-Piperidide; lactam N-7)			21	101	

— US9409952B2, “Peptide-compound cyclization method” (Chugai Seiyaku Kabushiki Kaisha, priority 2011, dated 2016)
